Reference: article PMC8190080, “Tanshinones induce tumor cell apoptosis via directly targeting FHIT” (Scientific Reports, 2021)

Key:
FHIT truncation TR2 = FHIT truncation TR2 (Homo sapiens, UniProt P49789); experiment: Cellular MST assay, GFP tagged FHIT truncation TR2; assay type: binding
Procedure: (§1) Ten million 293 cells overexpressing GFP-tagged FHIT or free GFP were lysed in 0.5 mL M-PER mammalian protein extraction reagent (Thermo Fisher Scientific). Cell lysates were diluted in PBS buffer to a final concentration at which the fluorescent signals of the GFP proteins were suitable for the detection of the Monolith NT.115 instrument (NanoTemper Technologies). A single point screening assay was developed against GFP-FHIT protein to find potential binding molecules from compound libraries (L1021,APExBIO). For binding affinity detection, a 10µL protein sample was mixed with 10µL ligand at various concentrations as indicated. And the purified proteins were labeled by Red- NHS kit in accordance with the manufacturer’s protocol (MO-L011, NanoTemper Technologies). Then the mixture solutions were loaded into NT.115 standard coated capillaries or premium coated capillaries (NanoTemper Technologies), and the MST measurements were performed at 25 °C. The fluorescence signal during the thermophoresis was monitored and the change in fluorescence was analyzed by software. The Kd was calculated by fitting a standard binding curve to the series diluted ligands. And data were analyzed by GraphPad Prism 7.0.

FHIT = target: T1, FHIT (Homo sapiens, UniProt P49789); experiment: MST assay, purified Red-NHS labeled FHIT; assay type: binding
T1 construct: GST (N, cleaved yes); made in house; host or cells: E. coli BL21 (DE3)
Procedure: The gene encoding human FHIT (P49789) was synthesized (Genscript, China) and cloned into pGEX-6P-1 such that the expressed protein would have an N-terminal glutathione S-transferase (GST)-tagged protein. The construct was transformed into expression host E.coli BL21 (DE3), and cells were grown in LB medium at 37 °C until the OD600 reached 0.6. The cells were then induced by adding 0.1 mM isopropyl-β-D-l-thiogalactopyranoside (IPTG) and grown at 18 °C overnight. Cells were harvested by centrifugation. The cell pellet was resuspended in a buffer containing 20 mM Tris (pH 7.5), 500 mM NaCl, and 2 mM DTT and lysed by sonication. After centrifugation, the clarified cell lysate was incubated with glutathione-sepharose 4B beads, and GST-tagged FHIT was eluted with the buffer consisting of 50 mM reduced glutathione. […]
Ten million 293 cells overexpressing GFP-tagged FHIT or free GFP were lysed in 0.5 mL M-PER mammalian protein extraction reagent (Thermo Fisher Scientific). […] The fluorescence signal during the thermophoresis was monitored and the change in fluorescence was analyzed by software. The Kd was calculated by fitting a standard binding curve to the series diluted ligands. And data were analyzed by GraphPad Prism 7.0.

HCT116 cells = experiment: Colony formation assay; assay type: cell-based, human; conditions: up to 10 µM, 14 days
Procedure: ENPP1 hydrolase activity detection assay
ENPP1 protein (4ng/µl) was mixed with series diluted compounds as indicated in assay buffer (50mM Tris-HCl, 2mM CaCl2, 2mM MgCl2, pH9.0) in a final DMSO concentration of 1% in a total volume of 20μL. The mixtures were incubated for 30min at 25°C, then 4µM Ap3A was added. After incubation at 25°C for 10min, ENPP1 should be inactivated at 85°C for 5min.
Then the production of ADP in the reaction system was detected by ADP-Glo reagent (V6930, Promega) according to the manufacturer’s protocol in 384-well. Luminescence was read by spark (TECAN), an integration time of 1 second per well. And the data were analyzed by […]
Fluorescent thin layer enzyme assay for ENPP1
Small molecules, when indicated at series concentrations, were mixed with 2.5µM the fluorescent substrate ApppBODIPY. Then, 10nM purified ENPP1 protein was added to the reaction system at 25°C containing 50mM Tris-HCl pH9.0, 2mM CaCl2, 2mM MgCl2. Reaction samples (0.6µL) were spotted on silica TLC plates (Merck) at 60–120s intervals. Plates were air-dried and developed in 2-propanol:NH4OH:1,4-dioxane: H2O (50:35:8:7) as reported before. Developed plates were imaged by fluorescein blot (ChemiDoc, Bio-rad).
Colony formation assay was performed as described before. Briefly, ~200/well single cells were planted into 6-well plate. […]

FHIT (H96N) = target: T2, FHIT (H96N) (Homo sapiens, UniProt P49789, H96N); experiment: Fluorescence polarization assay, FHIT H96N-ApppBODIPY binding inhibition; conditions: 5 µM FHIT (H96N), 1 µM ApppBODIPY
T2 construct: GST (N, cleaved yes); made in house; host or cells: E. coli BL21 (DE3)
Procedure: The binding of FHIT (H96N) to fluorescein-labeled substrates ApppBODIPY was analyzed by fluorescence polarization assay in 384-well format for dose–response curve studies using spark instrument (TECAN) according to the protocol reported before. And 5 µM FHIT (H96N) protein was incubated with 1 µM fluorescein-labeled substrates in buffer A (25 mM Tris–HCl, pH 7.5, 5 mM MgCl2 and 2 mM DTT) with series diluted inhibitors as indicated. Each sample was allowed to equilibrate in the solution for 30 min. After 30 min, the steady-state fluorescence anisotropy (mP) was measured. A second reading was taken after 10 min, to ensure that the mixture was well-equilibrated and stable. Less than 5% change was observed between 30 and 40 min measurements. The IC50 value was determined by fitting the binding curves using GraphPad Prism 7.0.

DCPS = target: T3, DCPS (Homo sapiens, UniProt Q96C86); experiment: MST assay, purified DCPS; assay type: binding
T3 construct: 6xHis (N); made in house; host or cells: E. coli BL21(DE3)
T3 sequence (Q96C86 1-337): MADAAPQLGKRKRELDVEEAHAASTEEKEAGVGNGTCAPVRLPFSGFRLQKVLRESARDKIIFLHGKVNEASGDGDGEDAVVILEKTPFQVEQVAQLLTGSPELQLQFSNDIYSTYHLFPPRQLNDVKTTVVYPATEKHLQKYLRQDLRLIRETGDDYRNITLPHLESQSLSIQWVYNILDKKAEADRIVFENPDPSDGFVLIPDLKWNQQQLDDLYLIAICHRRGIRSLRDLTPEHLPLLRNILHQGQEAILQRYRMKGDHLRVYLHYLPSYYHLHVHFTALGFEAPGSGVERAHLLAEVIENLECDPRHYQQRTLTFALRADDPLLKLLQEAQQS

FHIT truncation TR1 = FHIT truncation TR1 (Homo sapiens, UniProt P49789); experiment: Cellular MST assay, GFP tagged FHIT truncation TR1; assay type: binding
Procedure: as §1

T1 sequence (P49789 whole entry): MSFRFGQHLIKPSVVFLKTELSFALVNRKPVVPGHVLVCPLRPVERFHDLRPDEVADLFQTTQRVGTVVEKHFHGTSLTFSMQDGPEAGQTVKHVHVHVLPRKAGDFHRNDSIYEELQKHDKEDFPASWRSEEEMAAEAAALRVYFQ
Sequence of FHIT truncation TR1 (P49789 2-109): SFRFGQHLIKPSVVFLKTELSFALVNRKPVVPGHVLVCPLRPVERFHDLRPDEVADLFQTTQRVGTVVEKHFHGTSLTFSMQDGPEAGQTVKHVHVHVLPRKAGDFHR
T2 sequence (P49789 whole entry H96N): as the sequence (P49789 whole entry) above, with H96N counted along it
Sequence of FHIT truncation TR2 (P49789 whole entry, the tested form may be a part): as the sequence (P49789 whole entry) above

Kd (FHIT truncation TR2): 58.2 µM
Kd (FHIT; FHIT purified from E.coli, Red-NHS labeled, MST): 1.82 ± 0.3 µM
binding affinity of purified FHIT, times lower than cellular FHIT (FHIT; purified FHIT vs cellular GFP-FHIT): 5
IC50 (FHIT (H96N)): 2.2 ± 0.05 µM
Kd (DCPS): 9.31 ± 0.4 µM
Kd (FHIT truncation TR1): 75.1 µM
Compound: Cc1c(S(=O)(=O)O)oc2c1C(=O)C(=O)c1c-2ccc2c1CCCC2(C)C [STS, Sodium tanshinone IIA sulfonate]
colony formation of HCT116 cells (HCT116 cells): no effect was detected
